Patent US20220289753A1, “SHP2 INHIBITORS” (IRBM S.P.A., priority 2019, published 2022)

Molecular target: T1, SHP-2 enzyme (Met1-Leu525) (Homo sapiens, UniProt Q06124)
T1 construct: synthetized by Origene, Met1-Leu525, cat #TP750155; purchased Origene TP750155
T1 sequence (Q06124 1-525): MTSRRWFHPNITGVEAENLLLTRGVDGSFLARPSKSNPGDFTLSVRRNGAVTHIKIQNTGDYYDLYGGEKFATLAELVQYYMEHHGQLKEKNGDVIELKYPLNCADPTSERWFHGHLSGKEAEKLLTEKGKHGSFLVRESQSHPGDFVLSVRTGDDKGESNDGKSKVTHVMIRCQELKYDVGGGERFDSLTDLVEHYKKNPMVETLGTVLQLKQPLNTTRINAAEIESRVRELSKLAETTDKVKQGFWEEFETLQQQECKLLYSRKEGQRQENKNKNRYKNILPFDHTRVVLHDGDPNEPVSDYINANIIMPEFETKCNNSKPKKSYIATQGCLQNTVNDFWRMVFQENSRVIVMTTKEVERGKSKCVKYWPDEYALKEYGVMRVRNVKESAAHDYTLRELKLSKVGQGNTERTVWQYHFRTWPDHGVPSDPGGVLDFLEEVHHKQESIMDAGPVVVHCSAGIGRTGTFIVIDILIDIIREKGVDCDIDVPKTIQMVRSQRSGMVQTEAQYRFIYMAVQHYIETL
Experiment: SHP2 inhibition enzymatic assay (DiFMUP substrate, IRS1 peptide activation)
Format: biochemical
Details: SHP2 wt; activated by 500 nM IRS1 peptide; 75 μM DiFMUP substrate
Experimental: SHP2 Inhibition Enzymatic Assay
Assay volume of 20 μL/well was assembled in 384 well black polystyrene low-binding microplates (Greiner), using the following buffer: 60 mM HEPES pH 7.2, 75 mM NaCl, 75 mM KCl, 1 mM EDTA pH 8, 0.05% tween-20, 5 mM DTT. The SHP-2 enzyme (synthetized by Origene, Met1-Leu525, cat #TP750155) was used at a final concentration of 0.5 nM.
Briefly, DMSO serially diluted testing compounds were transferred to the bottom of the assay plate. SHP2 was then added together with the IRS1 peptide. 30 minutes post incubation, the DiFMUP substrate was added to the reaction and incubated 30 min at room temperature. […] The fluorescence was detected by a microplate reader (Envision, PerkinElmer) according to the DiFMUP excitation and emission wavelength. The lower the fluorescence the higher the SHP2 inhibition.
The percentage inhibition is fitted against the compound dilutions with a four-parameter logistic regression. The inflection point (i.e. the concentration at which half-maximal inhibition is achieved) is the IC50.

Structure (SMILES) | IC50 [nM]
Cn1c(N2CCC(C)(N)CC2)nc2ncc(Sc3cccnc3C(F)(F)F)nc21 [Example 4, 4-methyl-1-(1-methyl-6-((2-(trifluoromethyl)pyridin-3-yl)thio)-1H-imidazo[4,5-b]pyrazin-2-yl)piperidin-4-amine] | 500 to 3000
FC(F)(F)c1ncccc1Sc1cnc2[nH]c(N3CCC4(CCN4)CC3)nc2n1 [Example 5, 2-(1,7-diazaspiro[3.5]nonan-7-yl)-5-((2-(trifluoromethyl)pyridin-3-yl)thio)-1H-imidazo[4,5-b]pyrazine] | 500 to 3000
Cn1ncc2cc(Sc3cnc4nc(N5CCC(C)(N)CC5)[nH]c4n3)ccc21 [Example 6, 4-methyl-1-(6-((1-methyl-1H-indazol-5-yl)thio)-1H-imidazo[4,5-b]pyrazin-2-yl)piperidin-4-amine] | 500 to 3000
NC1CCN(c2nc3nc(Sc4cccnc4C(F)(F)F)cnc3[nH]2)CC1 [Example 7, 1-(5-((2-(trifluoromethyl)pyridin-3-yl)thio)-1H-imidazo[4,5-b]pyrazin-2-yl)piperidin-4-amine] | 500 to 3000
NCC1CCN(c2nc3nc(Sc4cccnc4C(F)(F)F)cnc3[nH]2)CC1 [Example 8, (1-(5-((2-(trifluoromethyl)pyridin-3-yl)thio)-1H-imidazo[4,5-b]pyrazin-2-yl)piperidin-4-yl)methanamine] | 500 to 3000
CC1(N)CCN(c2nc3ncc(Sc4csc5cnccc45)nc3[nH]2)CC1 [Example 9, 4-methyl-1-(6-(thieno[2,3-c]pyridin-3-ylthio)-1H-imidazo[4,5-b]pyrazin-2-yl)piperidin-4-amine] | 500 to 3000
CC1(N)CCN(c2nc3ncc(Sc4ccc(-n5nc[nH]c5=O)cc4)nc3[nH]2)CC1 [Example 10, 2-(4-((2-(4-amino-4-methylpiperidin-1-yl)-1H-imidazo[4,5-b]pyrazin-6-yl)thio)phenyl)-2,4-dihydro-3H-1,2,4-triazol-3-one] | 500 to 3000
CC1(N)CCN(c2nc3ncc(Sc4ccccc4)nc3[nH]2)CC1 [Example 11, 4-methyl-1-(6-(phenylthio)-1H-imidazo[4,5-b]pyrazin-2-yl)piperidin-4-amine] | 500 to 3000
CC1(N)CCN(c2nc3ncc(Sc4cccnc4)nc3[nH]2)CC1 [Example 12, 4-methyl-1-(6-(pyridin-3-ylthio)-1H-imidazo[4,5-b]pyrazin-2-yl)piperidin-4-amine] | 500 to 3000
CC1(N)CCN(c2nc3nc(Sc4cccnc4C(F)(F)F)cnc3n2CC2CC2)CC1 [Example 13, 1-(1-(cyclopropylmethyl)-5-((2-(trifluoromethyl)pyridin-3-yl)thio)-1H-imidazo[4,5-b]pyrazin-2-yl)-4-methylpiperidin-4-amine] | 500 to 3000
NC1CN(c2nc3nc(Sc4cccnc4C(F)(F)F)cnc3[nH]2)C1 [Example 15, 1-(5-((2-(trifluoromethyl)pyridin-3-yl)thio)-1H-imidazo[4,5-b]pyrazin-2-yl)azetidin-3-amine] | > 3000
CNC1CCN(c2nc3nc(Sc4cccnc4C(F)(F)F)cnc3[nH]2)CC1 [Example 16, N-methyl-1-(5-((2-(trifluoromethyl)pyridin-3-yl)thio)-1H-imidazo[4,5-b]pyrazin-2-yl)piperidin-4-amine] | 500 to 3000
FC(F)(F)c1ncccc1Sc1cnc2[nH]c(N3CC4(CCCNC4)C3)nc2n1 [Example 17, 2-(2,6-diazaspiro[3.5]nonan-2-yl)-5-((2-(trifluoromethyl)pyridin-3-yl)thio)-1H-imidazo[4,5-b]pyrazine] | 500 to 3000
CC1(N)CCN(c2nc3nc(Sc4ccc(C#N)cc4C(F)(F)F)cnc3[nH]2)CC1 [Example 19, 4-((2-(4-amino-4-methylpiperidin-1-yl)-1H-imidazo[4,5-b]pyrazin-5-yl)thio)-3-(trifluoromethyl)benzonitrile] | < 500
CC1(N)CCN(c2nc3nc(Sc4ccc(F)cc4F)cnc3[nH]2)CC1 [Example 20, 1-(5-((2,4-difluorophenyl)thio)-1H-imidazo[4,5-b]pyrazin-2-yl)-4-methylpiperidin-4-amine] | < 500
CC1(N)CCN(c2nc3nc(Sc4cccc(F)c4F)cnc3[nH]2)CC1 [Example 21, 1-(5-((2,3-difluorophenyl)thio)-1H-imidazo[4,5-b]pyrazin-2-yl)-4-methylpiperidin-4-amine] | 500 to 3000

Structure (SMILES) | IC50 [nM]
CC1(N)CCN(c2nc3nc(Sc4ccccc4C#N)cnc3[nH]2)CC1 [Example 23, 2-((2-(4-amino-4-methylpiperidin-1-yl)-1H-imidazo[4,5-b]pyrazin-5-yl)thio)benzonitrile] | < 500
COc1ccccc1Sc1cnc2[nH]c(N3CCC(C)(N)CC3)nc2n1 [Example 24, 1-(5-((2-methoxyphenyl)thio)-1H-imidazo[4,5-b]pyrazin-2-yl)-4-methylpiperidin-4-amine] | < 500
COc1cccc(Sc2cnc3[nH]c(N4CCC(C)(N)CC4)nc3n2)c1 [Example 25, 1-(5-((3-methoxyphenyl)thio)-1H-imidazo[4,5-b]pyrazin-2-yl)-4-methylpiperidin-4-amine] | 500 to 3000
CC1(N)CCN(c2nc3nc(Sc4cccc(C#N)c4)cnc3[nH]2)CC1 [Example 26, 3-((2-(4-amino-4-methylpiperidin-1-yl)-1H-imidazo[4,5-b]pyrazin-5-yl)thio)benzonitrile] | 500 to 3000
CC1(N)CCN(c2nc3nc(Sc4ccc(OC(F)(F)F)cc4)cnc3[nH]2)CC1 [Example 27, 4-methyl-1-(5-((4-(trifluoromethoxy)phenyl)thio)-1H-imidazo[4,5-b]pyrazin-2-yl)piperidin-4-amine] | > 3000
CC1(N)CCN(c2nc3nc(Sc4ccncc4Cl)cnc3[nH]2)CC1 [Example 28, 1-(5-((3-chloropyridin-4-yl)thio)-1H-imidazo[4,5-b]pyrazin-2-yl)-4-methylpiperidin-4-amine] | < 500
CC1(N)CCN(c2nc3ncc(Sc4ccc(C5(C#N)CCC5)cc4)nc3[nH]2)CC1 [Example 29, 1-(4-((2-(4-amino-4-methylpiperidin-1-yl)-1H-imidazo[4,5-b]pyrazin-6-yl)thio)phenyl)cyclobutane-1-carbonitrile] | > 3000
CC1(N)CCN(c2nc3ncc(Sc4csc5ccccc45)nc3[nH]2)CC1 [Example 30, 1-(6-(benzo[b]thiophen-3-ylthio)-1H-imidazo[4,5-b]pyrazin-2-yl)-4-methylpiperidin-4-amine] | > 3000
FC(F)(F)c1ncccc1Sc1cnc2[nH]c(N3CCCCC3)nc2n1 [Example 31, 2-(piperidin-1-yl)-5-((2-(trifluoromethyl)pyridin-3-yl)thio)-1H-imidazo[4,5-b]pyrazine] | 500 to 3000
FC(F)(F)c1ncccc1Sc1cnc2[nH]c(NCc3ccn[nH]3)nc2n1 [Example 32, N-((1H-pyrazol-5-yl)methyl)-5-((2-(trifluoromethyl)pyridin-3-yl)thio)-1H-imidazo[4,5-b]pyrazin-2-amine] | > 3000
NC1CCCN(c2nc3nc(Sc4cccnc4C(F)(F)F)cnc3[nH]2)C1 (centres unmarked) [Example 33, 1-(5-((2-(trifluoromethyl)pyridin-3-yl)thio)-1H-imidazo[4,5-b]pyrazin-2-yl)piperidin-3-amine] | < 500
CC1(N)CCN(c2nc3nc(Sc4cc(C(F)(F)F)ccc4Cl)cnc3[nH]2)CC1 [Example 36, 1-(5-((2-chloro-5-(trifluoromethyl)phenyl)thio)-1H-imidazo[4,5-b]pyrazin-2-yl)-4-methylpiperidin-4-amine] | 500 to 3000
Cc1cc(Cl)ccc1Sc1cnc2[nH]c(N3CCC(C)(N)CC3)nc2n1 [Example 38, 1-(5-((4-chloro-2-methylphenyl)thio)-1H-imidazo[4,5-b]pyrazin-2-yl)-4-methylpiperidin-4-amine] | < 500
Cc1cccc(Sc2cnc3[nH]c(N4CCC(C)(N)CC4)nc3n2)c1C [Example 39, 1-(5-((2,3-dimethylphenyl)thio)-1H-imidazo [4,5-b]pyrazin-2-yl)-4-methylpiperidin-4-amine] | < 500
CS(=O)(=O)NC1CCN(c2nc3nc(Sc4cccnc4C(F)(F)F)cnc3[nH]2)CC1 [Example 40, N-(1-(5-((2-(trifluoromethyl)pyridin-3-yl)thio)-1H-imidazo[4,5-b]pyrazin-2-yl)piperidin-4-yl)methanesulfonamide] | > 3000
OC1CCN(c2nc3nc(Sc4cccnc4C(F)(F)F)cnc3[nH]2)CC1 [Example 41, 1-(5-((2-(trifluoromethyl)pyridin-3-yl)thio)-1H-imidazo[4,5-b]pyrazin-2-yl)piperidin-4-ol] | > 3000
